Test results as given in patent US20250195463A1, “ORGANOMETALLIC COMPLEX, CONTROLLED-RELEASE MULTI-FUNCTIONAL DRUG, PHARMACEUTICAL COMPOSITION, PROCESSES FOR THE PREPARATION THEREOF AND THEIR USE” (FACULDADE DE CIÊNCIAS DA UNIVERSIDADE DE LISBOA, priority 2022, published 2025).
Like-named read-outs stand apart in the source and are kept apart here. Where a SMILES comes first, the peptide text is derived from it. [ ]: non-standard residue; d: D form. The star is where a group is joined. Levulinoyl = CC(=O)CCC(=O)*

Experiments:
MCF-7 (FGFR−) = test: MTT cytotoxicity assay; settings: human, 48 h
Procedure: (§1) By way of example, the in vitro cytotoxicity of the conjugate RuPC1, complex 4 and peptide P2 was determined in four human breast cancer cell lines with different levels of expression of the receptor FGFR, namely MDA-MB-231 (FGFR−), MCF-7 (FGFR−), SK-BR-3 (FGFR+), and MDA-MB-134-VI (FGFR+). The cytotoxicity of RuPC1 was also determined in the stated cell lines at controlled pH 6.8 and 7.4. The cytotoxicity of the complexes 5, 8, 9, and the reference complex (2,2′-bipyridyl)(triphenylphosphane)(f-cyclopentadienyl)ruthenium(II) trifluoromethanesulfonate, [RuCp(PPh3)(bipy)][CF3SO3] (TM34) was only determined in the cell line MDA-MB-231. All the cell lines were from the American Type Culture Collection (ATCC) and were cultured in Dulbecco's Modified Eagle Medium+Glutamax-I (Gibco) supplemented with 10% fetal bovine serum (FBS) and 1% antibiotics, excepting the MDA-MB-134-VI for which it was used the double amount of FBS. The cell cultures were kept in an incubator Heraeus at 37° C. under humidified atmosphere at 5% CO2. The cell viability was evaluated resorting to the MTT ([3-(4,5-dimethylthiazol-2-yl)-2,5-diphenyltetrazolium bromide]) colorimetric assay, which is based on the reduction of the tetrazolium salt to purple formazan by mitochondrial dehydrogenases in metabolically active cells. For the assays, the cells were seeded in 96-well plates (2×10^4 to 3×10^4 cells/200 μL) and allowed to adhere overnight. The compounds were first dissolved in dimethyl sulfoxide to obtain 10 mM stock solutions, further used to prepare the working solutions, at 0.1 to 100 μM, by dilution in the cell culture medium. Alternatively, for the assays at controlled pH 6.8 and 7.4, RuPC1 was first dissolved in a solution of 15% dimethyl sulfoxide/85% phosphate buffer (10 mM in water) to obtain 1.5 mM stock solutions further incubated for 48 hours at both pH values prior to be used to prepare the working solutions, at 0.1 to 50 μM, by dilution in the cell culture medium. In both cases, after continuous exposure of the cells to the compounds for 48 h at 37° C., the medium was removed and the cells were incubated with 200 μL of MTT solution (0.5 mg/mL) for 3 h. Then, the solution was discarded and the purple formazan formed by the viable cells was dissolved in 200 μL of dimethyl sulfoxide. The cell viability (%) was determined relative to the control (cells incubated without compounds) by measuring the absorbance at 570 nm on a PowerWave Xs Bio-Tek Instruments plate spectrophotometer. The respective values of the half maximal inhibitory concentration (IC50) were calculated with the software GraphPad Prism. All the compounds were tested in at least two independent experiments, each comprising six replicates per concentration.

MDA-MB-134-VI (FGFR+) = test: MTT cytotoxicity assay; settings: human, 48 h
Procedure: as §1

MDA-MB-231 (FGFR−) = test: MTT cytotoxicity assay; settings: 48 h
Procedure: as §1

SK-BR-3 (FGFR+) = test: MTT cytotoxicity assay; settings: human, 48 h
Procedure: as §1

[1] = test system: four human breast cancer cell lines with different levels of expression of the receptor FGFR; test: MTT cytotoxicity assay, comparisons across the cell line panel; type: cell-based; settings: adopted experimental conditions (48 h)
Procedure: By way of example, the in vitro cytotoxicity of the conjugate RuPC1, complex 4 and peptide P2 was determined in four human breast cancer cell lines with different levels of expression of the receptor FGFR, namely MDA-MB-231 (FGFR−), MCF-7 (FGFR−), SK-BR-3 (FGFR+), and MDA-MB-134-VI (FGFR+). The cytotoxicity of RuPC1 was also determined in the stated cell lines at controlled pH 6.8 and 7.4. The cytotoxicity of the complexes 5, 8, 9, and the reference complex (2,2′-bipyridyl)(triphenylphosphane)(f-cyclopentadienyl)ruthenium(II) trifluoromethanesulfonate, [RuCp(PPh3)(bipy)][CF3SO3] (TM34) was only determined in the cell line MDA-MB-231. […] The cell viability was evaluated resorting to the MTT ([3-(4,5-dimethylthiazol-2-yl)-2,5-diphenyltetrazolium bromide]) colorimetric assay, which is based on the reduction of the tetrazolium salt to purple formazan by mitochondrial dehydrogenases in metabolically active cells. […] The cell viability (%) was determined relative to the control (cells incubated without compounds) by measuring the absorbance at 570 nm on a PowerWave Xs Bio-Tek Instruments plate spectrophotometer. The respective values of the half maximal inhibitory concentration (IC50) were calculated with the software GraphPad Prism. […]

SMILES | IC50 (MCF-7 (FGFR−)) [µM] | IC50 (MDA-MB-134-VI (FGFR+)) [µM] | IC50 (MDA-MB-231 (FGFR−); human) [µM] | IC50 (SK-BR-3 (FGFR+)) [µM] | Cytotoxic activity in words [1] | IC50 (MDA-MB-231 (FGFR−); read-out: Cytotoxic activity expressed as IC50, Table 5, MDA-MB-231, 37° C.) [µM]
CC(=O)CCC(=O)N[C@@H](C(=O)N[C@@H](CO)C(=O)N1CCC[C@H]1C(=O)N1CCC[C@@H]1C(=O)N[C@@H](CC(C)C)C(=O)N[C@H](C(=O)N[C@@H](CC(C)C)C(=O)NCC(=O)N[C@@H](CCC(N)=O)C(=O)N[C@@H](CC(C)C)C(=O)N[C@@H](CC(C)C)C(=O)N[C@@H](CO)C(N)=O)[C@@H](C)O)C(C)C [peptide P2, 4-oxopetanoyl-NH-^1valine-^2serine-^3proline-^4proline-^5leucine-^6threonine-^7leucine-^8glycine-^9glutamine-^10leucine-^11leucine-^12serine-CONH2] (Levulinoyl-[dV]SP[dP]LTLGQLLS-NH2) | > 100 | > 100 | > 100 | > 100 | did not show significant cytotoxic activity | –
O=S(=O)([O-])C(F)(F)F.[Ru+2].c1cc[cH-]c1.c1ccc(-c2ccccn2)nc1.c1ccc(P(c2ccccc2)c2ccccc2)cc1 [TM34, (2,2′-bipyridyl)(triphenylphosphane)(f-cyclopentadienyl)ruthenium(II) trifluoromethanesulfonate, reference compound] | – | – | – | – | – | 0.52
